Measured values reported in patent US9890156B2, “Bicyclic heterocycles as FGFR4 inhibitors” (Incyte Corporation, priority 2015, dated 2018).
Like-named read-outs stand apart in the source and are kept apart here.

Key:
FGFR3 = FGFR3 (Homo sapiens (Human), UniProt P22607); assay: FGFR Enzymatic Assay (FRET, peptide phosphorylation), FGFR3; assay type: biochemical; details: pre-incubated for 4 hours; ATP 140 μM
FGFR4 = FGFR4 (Homo sapiens (Human), UniProt P22455); assay: FGFR Enzymatic Assay (FRET, peptide phosphorylation), FGFR4
FGFR2 = FGFR2 (Homo sapiens (Human), UniProt P21802); assay: FGFR Enzymatic Assay (FRET, peptide phosphorylation), FGFR2; details: read-out: FGFR2 IC50; pre-incubated for 4 hours; ATP 100 uM
FGFR1 = FGFR1 (Homo sapiens (Human), UniProt P11362); assay: FGFR Enzymatic Assay (FRET, peptide phosphorylation), FGFR1; details: read-out: FGFR1 IC50; pre-incubated for 4 hours; ATP 210 uM
[1] = read-out: FGFR4 IC50, pre-incubated for 4 hours, ATP 600 uM

FGFR1, sequence (P11362 22-822): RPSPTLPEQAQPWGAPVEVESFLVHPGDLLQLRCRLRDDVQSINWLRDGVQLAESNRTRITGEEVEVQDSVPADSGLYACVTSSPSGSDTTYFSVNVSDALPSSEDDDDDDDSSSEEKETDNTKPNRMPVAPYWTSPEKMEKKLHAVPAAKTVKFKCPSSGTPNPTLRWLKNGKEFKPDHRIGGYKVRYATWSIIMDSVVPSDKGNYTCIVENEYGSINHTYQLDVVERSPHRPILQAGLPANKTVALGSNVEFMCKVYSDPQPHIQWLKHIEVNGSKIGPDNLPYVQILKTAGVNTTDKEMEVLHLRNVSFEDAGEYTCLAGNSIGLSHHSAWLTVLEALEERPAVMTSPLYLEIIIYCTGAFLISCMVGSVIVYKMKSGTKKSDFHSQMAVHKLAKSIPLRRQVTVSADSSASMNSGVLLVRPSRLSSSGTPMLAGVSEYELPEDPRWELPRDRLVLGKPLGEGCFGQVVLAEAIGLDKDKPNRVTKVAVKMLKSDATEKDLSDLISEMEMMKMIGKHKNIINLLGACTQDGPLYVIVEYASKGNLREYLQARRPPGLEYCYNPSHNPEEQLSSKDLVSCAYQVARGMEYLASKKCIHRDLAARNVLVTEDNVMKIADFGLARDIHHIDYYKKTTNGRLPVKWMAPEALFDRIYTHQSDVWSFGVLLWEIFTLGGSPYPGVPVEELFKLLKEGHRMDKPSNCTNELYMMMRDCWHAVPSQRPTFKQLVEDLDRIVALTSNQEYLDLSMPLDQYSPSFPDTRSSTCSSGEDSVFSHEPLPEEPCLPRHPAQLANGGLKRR
FGFR3, sequence (P22607 23-806): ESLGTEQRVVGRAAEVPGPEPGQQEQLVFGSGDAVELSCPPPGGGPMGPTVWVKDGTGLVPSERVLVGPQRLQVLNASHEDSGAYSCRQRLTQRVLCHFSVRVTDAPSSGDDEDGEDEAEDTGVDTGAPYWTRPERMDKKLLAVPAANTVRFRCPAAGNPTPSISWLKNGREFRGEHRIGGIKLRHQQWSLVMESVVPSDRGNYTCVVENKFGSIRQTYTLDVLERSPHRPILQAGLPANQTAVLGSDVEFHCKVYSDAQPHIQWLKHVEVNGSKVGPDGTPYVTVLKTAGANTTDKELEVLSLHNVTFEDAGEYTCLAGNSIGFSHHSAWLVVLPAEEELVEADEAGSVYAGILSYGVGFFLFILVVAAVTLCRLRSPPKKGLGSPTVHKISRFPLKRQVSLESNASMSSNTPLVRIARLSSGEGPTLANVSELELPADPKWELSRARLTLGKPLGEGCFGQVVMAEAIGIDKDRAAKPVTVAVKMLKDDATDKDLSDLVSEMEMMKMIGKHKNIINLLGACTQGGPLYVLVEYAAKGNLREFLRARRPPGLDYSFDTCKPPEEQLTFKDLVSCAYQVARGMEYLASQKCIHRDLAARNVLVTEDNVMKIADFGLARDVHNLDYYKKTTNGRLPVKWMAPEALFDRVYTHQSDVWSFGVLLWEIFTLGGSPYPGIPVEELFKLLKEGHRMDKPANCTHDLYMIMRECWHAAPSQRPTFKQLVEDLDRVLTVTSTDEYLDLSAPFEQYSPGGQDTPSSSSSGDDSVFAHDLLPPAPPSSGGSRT
FGFR4, sequence (P22455 22-802): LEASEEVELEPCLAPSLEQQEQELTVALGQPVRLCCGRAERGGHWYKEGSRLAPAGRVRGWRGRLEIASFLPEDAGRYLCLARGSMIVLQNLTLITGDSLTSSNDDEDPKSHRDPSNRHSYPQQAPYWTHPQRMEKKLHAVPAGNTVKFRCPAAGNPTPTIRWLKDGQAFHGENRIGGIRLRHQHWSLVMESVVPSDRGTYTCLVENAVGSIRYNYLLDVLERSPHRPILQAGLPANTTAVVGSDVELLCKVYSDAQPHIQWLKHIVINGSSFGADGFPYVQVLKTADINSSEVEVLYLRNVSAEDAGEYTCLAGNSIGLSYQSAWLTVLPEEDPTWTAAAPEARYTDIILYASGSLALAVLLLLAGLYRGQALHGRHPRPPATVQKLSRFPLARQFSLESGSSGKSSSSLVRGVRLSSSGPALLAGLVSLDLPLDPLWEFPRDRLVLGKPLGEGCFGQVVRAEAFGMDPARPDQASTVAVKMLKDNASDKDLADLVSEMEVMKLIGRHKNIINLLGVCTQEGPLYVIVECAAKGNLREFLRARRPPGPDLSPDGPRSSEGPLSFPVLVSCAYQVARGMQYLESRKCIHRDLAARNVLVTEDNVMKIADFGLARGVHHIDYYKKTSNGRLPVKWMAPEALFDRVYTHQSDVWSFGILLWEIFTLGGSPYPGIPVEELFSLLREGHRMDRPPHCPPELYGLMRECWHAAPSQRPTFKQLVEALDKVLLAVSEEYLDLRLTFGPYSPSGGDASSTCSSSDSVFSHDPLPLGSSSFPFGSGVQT
FGFR2, sequence (P21802 22-821): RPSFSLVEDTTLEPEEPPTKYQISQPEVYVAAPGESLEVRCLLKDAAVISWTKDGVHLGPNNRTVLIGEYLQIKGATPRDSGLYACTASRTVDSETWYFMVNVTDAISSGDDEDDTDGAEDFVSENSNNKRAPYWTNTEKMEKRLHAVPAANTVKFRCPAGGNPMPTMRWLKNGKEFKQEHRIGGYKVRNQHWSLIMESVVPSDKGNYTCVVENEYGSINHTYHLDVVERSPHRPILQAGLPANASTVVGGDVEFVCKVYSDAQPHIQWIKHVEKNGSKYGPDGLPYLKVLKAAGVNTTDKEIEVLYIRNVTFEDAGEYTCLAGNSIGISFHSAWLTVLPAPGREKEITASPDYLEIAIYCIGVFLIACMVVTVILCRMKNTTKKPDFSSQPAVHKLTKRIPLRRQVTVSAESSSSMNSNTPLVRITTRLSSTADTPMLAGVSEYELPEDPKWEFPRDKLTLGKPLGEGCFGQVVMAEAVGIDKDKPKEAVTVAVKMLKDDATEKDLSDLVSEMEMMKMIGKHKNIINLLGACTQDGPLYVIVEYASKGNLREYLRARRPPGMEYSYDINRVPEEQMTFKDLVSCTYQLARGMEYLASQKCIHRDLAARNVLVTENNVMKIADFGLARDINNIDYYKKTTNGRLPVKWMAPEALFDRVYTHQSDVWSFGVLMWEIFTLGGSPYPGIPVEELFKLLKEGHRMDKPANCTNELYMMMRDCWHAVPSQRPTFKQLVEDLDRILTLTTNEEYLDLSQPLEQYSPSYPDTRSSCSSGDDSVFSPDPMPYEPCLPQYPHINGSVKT

| IC50 (FGFR3) | IC50 (FGFR4; [1]) | IC50 (FGFR2) | IC50 (FGFR1) | IC50 (FGFR4) | SMILES |
| --- | --- | --- | --- | --- | --- |
| > 200 nM | < 10 nM | > 200 nM | > 200 nM |  | C=CC(=O)NCc1cc2c(cn1)CN(c1c(F)c(OC)cc(OC)c1F)C(=O)N2CCC [Example 12, N-((3-(2,6-difluoro-3,5-dimethoxyphenyl)-2-oxo-1-propyl-1,2,3,4-tetrahydropyrido[4,3-d]pyrimidin-7-yl)methyl)acrylamide] |
| > 200 nM | < 10 nM | > 200 nM | > 200 nM |  | C=CC(=O)NCc1cc2c(cn1)CN(c1c(F)c(OC)cc(OC)c1F)C(=O)N2CC(F)F [Example 14, N-((3-(2,6-difluoro-3,5-dimethoxyphenyl)-1-(2,2-difluoroethyl)-2-oxo-1,2,3,4-tetrahydropyrido[4,3-d]pyrimidin-7-yl)methyl)acrylamide] |
| > 200 nM | < 10 nM | > 200 nM | > 200 nM |  | C=CC(=O)NCc1cc2c(cn1)CN(c1c(F)c(OC)cc(OC)c1F)C(=O)N2C(C)C [Example 15, N-((3-(2,6-difluoro-3,5-dimethoxyphenyl)-1-isopropyl-2-oxo-1,2,3,4-tetrahydropyrido[4,3-d]pyrimidin-7-yl)methyl)acrylamide] |
| > 200 nM |  | > 200 nM | > 200 nM | 10 to 30 nM | C=CC(=O)NCc1cc2c(cn1)CN(c1c(F)c(OC)cc(OC)c1F)C(=O)N2Cc1cccnc1 [Example 17, N-((3-(2,6-difluoro-3,5-dimethoxyphenyl)-2-oxo-1-(pyridin-3-ylmethyl)-1,2,3,4-tetrahydropyrido[4,3-d]pyrimidin-7-yl)methyl)acrylamide] |
| > 200 nM | < 10 nM | > 200 nM | > 200 nM |  | C=CC(=O)NCc1cc2c(cn1)CN(c1c(F)c(OC)cc(OC)c1F)C(=O)N2C[C@H]1CCOC1 [Example 19, (R)—N-((3-(2,6-difluoro-3,5-dimethoxyphenyl)-2-oxo-1-((tetrahydrofuran-3-yl)methyl)-1,2,3,4-tetrahydropyrido[4,3-d]pyrimidin-7-yl)methyl)acrylamide] |
| > 200 nM | < 10 nM | > 200 nM | > 200 nM |  | C=CC(=O)NCc1cc2c(cn1)CN(c1c(F)c(OC)cc(OC)c1F)C(=O)N2CC#N [Example 20, N-((1-(cyanomethyl)-3-(2,6-difluoro-3,5-dimethoxyphenyl)-2-oxo-1,2,3,4-tetrahydropyrido[4,3-d]pyrimidin-7-yl)methyl)acrylamide] |
| > 200 nM | < 10 nM | > 200 nM | > 200 nM |  | C=CC(=O)NCc1cc2c(cn1)CN(c1c(F)c(OC)cc(OC)c1F)C(=O)N2CC(F)(F)F [Example 21, N-((3-(2,6-difluoro-3,5-dimethoxyphenyl)-2-oxo-1-(2,2,2-trifluoroethyl)-1,2,3,4-tetrahydropyrido[4,3-d]pyrimidin-7-yl)methyl)acrylamide] |
| > 200 nM |  | > 200 nM | > 200 nM | 10 to 30 nM | C=CC(=O)NCc1cc2c(cn1)CN(c1c(F)c(OC)cc(OC)c1F)C(=O)N2C [Example 22, N-((3-(2,6-difluoro-3,5-dimethoxyphenyl)-1-methyl-2-oxo-1,2,3,4-tetrahydropyrido[4,3-d]pyrimidin-7-yl)methyl)acrylamide] |
| > 200 nM |  | > 200 nM | > 200 nM | 10 to 30 nM | C=CC(=O)NCc1cc2c(cn1)CN(c1c(F)c(OC)cc(OC)c1F)C(=O)N2C1CCC1 [Example 25, N-((1-cyclobutyl-3-(2,6-difluoro-3,5-dimethoxyphenyl)-2-oxo-1,2,3,4-tetrahydropyrido[4,3-d]pyrimidin-7-yl)methyl)acrylamide] |
| > 200 nM |  | > 200 nM | > 200 nM | 10 to 30 nM | C=CC(=O)NCc1cc2c(cn1)CN(c1c(F)c(OC)cc(OC)c1F)C(=O)N2c1ccncc1 [Example 26, N-((3-(2,6-difluoro-3,5-dimethoxyphenyl)-2-oxo-1-(pyridin-4-yl)-1,2,3,4-tetrahydropyrido[4,3-d]pyrimidin-7-yl)methyl)acrylamide] |
| > 200 nM | < 10 nM | > 200 nM | > 200 nM |  | C=CC(=O)NCc1cc2c(cn1)CN(c1c(F)c(OC)cc(OC)c1F)C(=O)N2CCF [Example 27, N-((3-(2,6-difluoro-3,5-dimethoxyphenyl)-1-(2-fluoroethyl)-2-oxo-1,2,3,4-tetrahydropyrido[4,3-d]pyrimidin-7-yl)methyl)acrylamide] |
| > 200 nM | < 10 nM | > 200 nM | > 200 nM |  | C=CC(=O)NCc1cc2c(cn1)CN(c1c(F)c(OC)cc(OC)c1F)C(=O)N2C[C@@H]1CCOC1 [Example 31, (S)—N-((3-(2,6-difluoro-3,5-dimethoxyphenyl)-2-oxo-1-((tetrahydrofuran-3-yl)methyl)-1,2,3,4-tetrahydropyrido[4,3-d]pyrimidin-7-yl)methyl)acrylamide] |
| > 200 nM | < 10 nM | > 200 nM | > 200 nM |  | C=CC(=O)NCc1cc2c(cn1)CN(c1c(F)c(OC)cc(OC)c1F)C(=O)N2CC1CCN(C(=O)NC(C)C)CC1 [Example 34, 4-((7-(acrylamidomethyl)-3-(2,6-difluoro-3,5-dimethoxyphenyl)-2-oxo-3,4-dihydropyrido[4,3-d]pyrimidin-1(2H)-yl)methyl)-N-isopropylpiperidine-1-carboxamide] |
| > 200 nM | < 10 nM | > 200 nM | > 200 nM |  | C=CC(=O)NCc1cc2c(cn1)CN(c1c(F)c(OC)cc(OC)c1F)C(=O)N2CC1CCN(S(C)(=O)=O)CC1 [Example 35, N-((3-(2,6-difluoro-3,5-dimethoxyphenyl)-1-((1-(methylsulfonyl)piperidin-4-yl)methyl)-2-oxo-1,2,3,4-tetrahydropyrido[4,3-d]pyrimidin-7-yl)methyl)acrylamide] |
| > 200 nM | < 10 nM | > 200 nM | > 200 nM |  | C=CC(=O)NCc1cc2c(cn1)CN(c1c(Cl)c(OC)cc(OC)c1Cl)C(=O)N2CC [Example 36, N-((3-(2,6-dichloro-3,5-dimethoxyphenyl)-1-ethyl-2-oxo-1,2,3,4-tetrahydropyrido[4,3-d]pyrimidin-7-yl)methyl)acrylamide] |
| > 200 nM |  | > 200 nM | > 200 nM | 10 to 30 nM | C=CC(=O)NCc1ncc2c(c1C)C1(CC1)C(=O)N(c1c(F)c(OC)cc(OC)c1F)C2 [Example 37, N-((2′-(2,6-difluoro-3,5-dimethoxyphenyl)-5′-methyl-3′-oxo-2′,3′-dihydro-1′H-spiro[cyclopropane-1,4′-[2,7]naphthyridine]-6′-yl)methyl)acrylamide] |
